Assay results published in PubChem BioAssay (NCI).
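Compound exposure: 48 hours, 5 concentrations, 96-well plates. Definition used: TGI = concentration required for complete inhibition of growth.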 Where a SMILES comes first, the peptide text is derived from it. [ ]: non-standard residue; d: D form. The star is where a group is joined. Phe(4-NO2) = N[CH](Cc1ccc([N+](=O)[O-])cc1)C(=O)O; Cbz = O=C(OCc1ccccc1)*

How the values were obtained:
Assay in all cases: NCI-60 cell line screen, 48 h
CCRF-CEM leukemia = tested on: CCRF-CEM leukemia
EKVX NSCLC = tested on: EKVX NSCLC
HL-60(TB) leukemia = tested on: HL-60(TB) leukemia
HT29 colon = tested on: HT29 colon
KM12 colon = tested on: KM12 colon
NCI-H522 lung = tested on: NCI-H522 lung
SF-295 CNS = tested on: SF-295 CNS
SF-539 CNS = tested on: SF-539 CNS
SK-MEL-5 melanoma = tested on: SK-MEL-5 melanoma
SN12C renal = tested on: SN12C renal
SNB-19 CNS = tested on: SNB-19 CNS
SW-620 colon = tested on: SW-620 colon
A498 renal = tested on: A498 renal
M14 melanoma = tested on: M14 melanoma
OVCAR-4 ovarian = tested on: OVCAR-4 ovarian
PC-3 prostate = tested on: PC-3 prostate
SNB-75 CNS = tested on: SNB-75 CNS
U251 CNS = tested on: U251 CNS
HS 578T breast = tested on: HS 578T breast

O=c1c(-c2ccccc2)c2oc(c1-c1ccccc1)CS(=O)(=O)CCC2
TGI (CCRF-CEM leukemia): > 100 µM | TGI (EKVX NSCLC): > 100 µM | TGI (HL-60(TB) leukemia): > 100 µM | TGI (HT29 colon): 75.8 µM | TGI (KM12 colon): > 100 µM | TGI (NCI-H522 lung): 22.7 µM | TGI (SF-295 CNS): > 100 µM | TGI (SF-539 CNS): 42.4 µM | TGI (SK-MEL-5 melanoma): 85 µM | TGI (SN12C renal): 44.2 µM | TGI (SNB-19 CNS): > 100 µM | TGI (SW-620 colon): > 100 µM

N#CC1(C#N)NC(c2cccnc2)C(C#N)(C#N)NC1c1cccnc1 (centres undefined)
TGI (A498 renal): > 100 µM | TGI (CCRF-CEM leukemia): > 100 µM | TGI (EKVX NSCLC): > 100 µM | TGI (HL-60(TB) leukemia): > 100 µM | TGI (HT29 colon): > 100 µM | TGI (KM12 colon): > 100 µM | TGI (M14 melanoma): > 100 µM | TGI (OVCAR-4 ovarian): > 100 µM | TGI (PC-3 prostate): > 100 µM | TGI (SF-295 CNS): > 100 µM | TGI (SF-539 CNS): > 100 µM | TGI (SK-MEL-5 melanoma): > 100 µM | TGI (SN12C renal): > 100 µM | TGI (SNB-75 CNS): > 100 µM | TGI (SW-620 colon): > 100 µM | TGI (U251 CNS): > 100 µM

CC(C)(Br)C(Br)CCC(=CCBr)CBr (mixture of isomers)
TGI (A498 renal): 44.6 µM | TGI (CCRF-CEM leukemia): 6.1 µM | TGI (EKVX NSCLC): 49.7 µM | TGI (HL-60(TB) leukemia): 2.15 µM | TGI (HS 578T breast): 49.7 µM | TGI (HT29 colon): 9.16 µM | TGI (KM12 colon): 10.2 µM | TGI (M14 melanoma): 4.29 µM | TGI (NCI-H522 lung): 3.12 µM | TGI (OVCAR-4 ovarian): 17 µM | TGI (SF-295 CNS): 10.9 µM | TGI (SF-539 CNS): 10.3 µM | TGI (SK-MEL-5 melanoma): 12.4 µM | TGI (SN12C renal): 4.29 µM | TGI (SNB-19 CNS): 31.1 µM | TGI (SNB-75 CNS): 10.9 µM | TGI (SW-620 colon): 7.18 µM | TGI (U251 CNS): 8.26 µM

CC1=[N+]([O-])C(C)(C)N(N=O)C1(C)C
TGI (CCRF-CEM leukemia): > 10 µM | TGI (EKVX NSCLC): > 10 µM | TGI (HL-60(TB) leukemia): > 10 µM | TGI (HT29 colon): > 10 µM | TGI (KM12 colon): > 10 µM | TGI (M14 melanoma): > 10 µM | TGI (NCI-H522 lung): > 10 µM | TGI (OVCAR-4 ovarian): > 10 µM | TGI (PC-3 prostate): > 10 µM | TGI (SF-295 CNS): > 10 µM | TGI (SN12C renal): > 10 µM | TGI (SNB-19 CNS): > 10 µM | TGI (SW-620 colon): > 10 µM | TGI (U251 CNS): > 10 µM

COc1cc(C2SCC(=O)N2Cc2ccccc2)cc(OC)c1OC (centres undefined)
TGI (CCRF-CEM leukemia): > 100 µM | TGI (EKVX NSCLC): > 100 µM | TGI (HL-60(TB) leukemia): > 100 µM | TGI (HS 578T breast): > 100 µM | TGI (HT29 colon): > 100 µM | TGI (KM12 colon): > 100 µM | TGI (M14 melanoma): > 100 µM | TGI (NCI-H522 lung): > 100 µM | TGI (OVCAR-4 ovarian): > 100 µM | TGI (PC-3 prostate): > 100 µM | TGI (SF-295 CNS): > 100 µM | TGI (SF-539 CNS): > 100 µM | TGI (SK-MEL-5 melanoma): > 100 µM | TGI (SN12C renal): > 100 µM | TGI (SNB-19 CNS): > 100 µM | TGI (SW-620 colon): > 100 µM | TGI (U251 CNS): > 100 µM

CCOC(=O)CCC(NC(=O)OCc1ccccc1)C(=O)NC(CCC(=O)OCC)C(=O)NC(Cc1ccc([N+](=O)[O-])cc1)C(=O)NC(CCC(=O)OCC)C(=O)NC(CCC(=O)OCC)C(=O)OCC (centres undefined) (Cbz-E(OEt)E(OEt)[Phe(4-NO2)]E(OEt)E(OEt)-OEt; configuration not given here)
TGI (CCRF-CEM leukemia): > 100 µM | TGI (EKVX NSCLC): > 100 µM | TGI (HS 578T breast): > 100 µM | TGI (HT29 colon): > 100 µM | TGI (KM12 colon): > 100 µM | TGI (NCI-H522 lung): > 100 µM | TGI (OVCAR-4 ovarian): > 100 µM | TGI (PC-3 prostate): > 100 µM | TGI (SF-295 CNS): > 100 µM | TGI (SK-MEL-5 melanoma): > 100 µM | TGI (SN12C renal): > 100 µM | TGI (SNB-19 CNS): > 100 µM | TGI (SNB-75 CNS): > 100 µM | TGI (SW-620 colon): > 100 µM | TGI (U251 CNS): > 100 µM

CC1(C)C(C#N)=[N+]([O-])C(C)(C)N1O
TGI (CCRF-CEM leukemia): > 100 µM | TGI (EKVX NSCLC): > 100 µM | TGI (HL-60(TB) leukemia): 73.4 µM | TGI (HS 578T breast): > 100 µM | TGI (HT29 colon): > 100 µM | TGI (KM12 colon): > 100 µM | TGI (M14 melanoma): > 100 µM | TGI (OVCAR-4 ovarian): > 100 µM | TGI (PC-3 prostate): > 100 µM | TGI (SF-295 CNS): > 100 µM | TGI (SF-539 CNS): > 100 µM | TGI (SK-MEL-5 melanoma): > 100 µM | TGI (SN12C renal): > 100 µM | TGI (SNB-19 CNS): > 100 µM | TGI (SNB-75 CNS): > 100 µM | TGI (SW-620 colon): > 100 µM | TGI (U251 CNS): > 100 µM
